From patent US9962452B2, “Soluble complexes of drug analogs and albumin” (Zhuhai Beihai Biotech Co., Ltd., priority 2013, dated 2018)

Target: Human serum albumin (HSA) (Homo sapiens, UniProt P02768)
Test: HSA-Binding Assay (equilibrium dialysis, LC-MS/MS)
Settings: isolated protein
Procedure: Equilibrium dialysis was performed in a 24-well BD Gentest Serum Binding System (BD Biosciences, Woburn, Mass.). Human serum albumin (HSA) at 0.6 mM was prepared by dissolving in phosphate buffered saline (PBS: 4.01 mL 1 M K2HPO4+0.99 mL 1 M KH2PO4+1.37 mL 5 M NaCl+43.63 mL water). After washing and soaking the 24-well BD Gentest Serum Binding System with water, 30% ethanol, and PBS, 750 μL of HSA and 250 μL of PBS were dispensed into each donor and receiver well, respectively. 3.75 μL of 1 mM test compound or wafarin (as control) was spiked into HSA in each donor well. The duplicate incubations were performed at 37° C. for 20 hrs.
After incubation, HSA and buffer samples collected from donor and receiver wells, together with calibration standard samples, were prepared in 96-well plates as shown in Table 2.
The plates were then capped, vortexed, and centrifuged at 3500 rpm for 10 minutes. The supernatant was injected into LC-MS/MS. Sample analysis was performed on an LC/MS/MS system composed of Shimadzu Prominence pumps, SIL-20ACHT autosampler, and Applied Biosystems/MDS Sciex API 3200.

Compared with `CCCCCCCCCCCCCCCCC(NC(=O)CCC(=O)O[C@]1(CC)C(=O)OCc2c1cc1n(c2=O)Cc2c-1nc1ccc(O)cc1c2CC)C(=O)O` (stereo partly drawn) [FL-003], `CCCCC(NC(=O)CCC(=O)O[C@]1(CC)C(=O)OCc2c1cc1n(c2=O)Cc2c-1nc1ccc(O)cc1c2CC)C(=O)O` (stereo partly drawn) [FL-040] is higher in fraction unbound at 20 h, 5 μM: under 0.001 for the first, 0.016 for the second.

Compared with `CCc1c2c(nc3ccc(O)cc13)-c1cc3c(c(=O)n1C2)COC(=O)[C@@]3(CC)OC(=O)CCC(=O)N[C@@H](CC(C)C)C(=O)O` [FL-043], `CCc1c2c(nc3ccc(OC(=O)CCC(=O)N[C@@H](CC(C)C)C(=O)O)cc13)-c1cc3c(c(=O)n1C2)COC(=O)[C@@]3(CC)OC(=O)CCC(=O)N[C@@H](CC(C)C)C(=O)O` [FL-041] is lower in fraction unbound at 20 h, 5 μM: 0.03 for the first, under 0.022 for the second.

`CCCCCCC(NC(=O)CCC(=O)Oc1ccc2nc3c(c(CC)c2c1)Cn1c-3cc2c(c1=O)COC(=O)[C@@]2(CC)OC(=O)CCC(=O)NC(CCCCCC)C(=O)O)C(=O)O` (stereo partly drawn) [FL-037] and `CCCCC(NC(=O)CCC(=O)Oc1ccc2nc3c(c(CC)c2c1)Cn1c-3cc2c(c1=O)COC(=O)[C@@]2(CC)OC(=O)CCC(=O)NC(CCCC)C(=O)O)C(=O)O` (stereo partly drawn) [FL-038] cannot be ordered by fraction unbound at 20 h, 5 μM: under 0.023 for the first, under 0.168 for the second.
